{"source": "patent US8084621B2", "about": "“3-Pyrrolo[b]cyclohexylene-2-dihydroindolinone derivatives and uses thereof” (Jiangsu Simcere Pharmaceutical R&D Co. Ltd., priority 2006, dated 2011)", "type_in_all_cases": "cell-based", "key": {"[1]": {"tested_on": "Human Non-Small Cell Lung Cancer Cell Line (A549)", "assay": "Tumor cell proliferation assay (MTT), A549", "conditions": "for inhibition at 10 µM: concentration of 10^−5 mol/L, preliminary screening, 72 hours, read-out: Inhibition rate % A549; for IC50: secondary screening, 48 hours", "outline": "A"}, "[2]": {"tested_on": "Human Gastric Cancer Cell Line (BGC)", "assay": "Tumor cell proliferation assay (MTT), BGC", "conditions": "for inhibition at 10 µM: concentration of 10^−5 mol/L, preliminary screening, 72 hours, read-out: Inhibition rate % BGC; for IC50: secondary screening, 48 hours"}, "[3]": {"tested_on": "Human Pancreatic Carcinoma Cell Line (BXPC-3)", "assay": "Tumor cell proliferation assay (MTT), BXPC-3", "conditions": "for inhibition at 10 µM: concentration of 10^−5 mol/L, preliminary screening, 72 hours, read-out: Inhibition rate % BXPC-3; for IC50: secondary screening, 48 hours"}, "[4]": {"tested_on": "Human Colon Cancer Cell Line (HT-29)", "assay": "Tumor cell proliferation assay (MTT), HT29", "conditions": "for inhibition at 10 µM: concentration of 10^−5 mol/L, preliminary screening, 72 hours, read-out: Inhibition rate % HT29; for IC50: secondary screening, 48 hours"}, "[5]": {"tested_on": "Human Pancreatic Carcinoma Cells (PANC-1)", "assay": "Tumor cell proliferation assay (MTT), PANC-1", "conditions": "for inhibition at 10 µM: concentration of 10^−5 mol/L, preliminary screening, 72 hours, read-out: Inhibition rate % PANC-1; for IC50: secondary screening, 48 hours"}}, "data": [{"smiles": "Cc1[nH]c2c(c1C(=O)NCC(O)CN1CCCC1)CCC/C2=C1/C(=O)Nc2ccccc21", "note": "(stereo not shown) [I-70, N-(2-hydroxy-3-(pyrrolidin-1-yl)propyl)-2-methyl-7-[1,2-dihydro-2-oxo-3H-indol-(Z)-3-ylidene]-4,5,6,7-tetrahydro-1H-indole-3-carboxamide]", "values": [{"measurement": "inhibition at 10 µM", "setting": "[1]", "result": 76.3, "unit": "%"}, {"measurement": "IC50", "setting": "[1]", "result": 1030, "unit": "nM"}, {"measurement": "inhibition at 10 µM", "setting": "[2]", "result": 84.8, "unit": "%"}, {"measurement": "IC50", "setting": "[2]", "result": 1490, "unit": "nM"}, {"measurement": "inhibition at 10 µM", "setting": "[3]", "result": 98.7, "unit": "%"}, {"measurement": "IC50", "setting": "[3]", "result": 970, "unit": "nM"}, {"measurement": "inhibition at 10 µM", "setting": "[4]", "result": 94.7, "unit": "%"}, {"measurement": "IC50", "setting": "[4]", "result": 930, "unit": "nM"}, {"measurement": "inhibition at 10 µM", "setting": "[5]", "result": 97.4, "unit": "%"}, {"measurement": "IC50", "setting": "[5]", "result": 1630, "unit": "nM"}]}, {"smiles": "CCN(CC)CCNC(=O)c1c(C)[nH]c2c1CCC/C2=C1/C(=O)Nc2ccc(Cl)cc21", "note": "[I-3, N-(2-(diethylamino)ethyl)-2-methyl-7-[1,2-dihydro-5-chloro-2-oxo-3H-indol-(Z)-3-ylidene]-4,5,6,7-tetrahydro-1H-indole-3-carboxamide]", "values": [{"measurement": "inhibition at 10 µM", "setting": "[1]", "result": 55.5, "unit": "%"}, {"measurement": "IC50", "setting": "[1]", "result": 4950, "unit": "nM"}, {"measurement": "inhibition at 10 µM", "setting": "[2]", "result": 78.1, "unit": "%"}, {"measurement": "IC50", "setting": "[2]", "result": 2030, "unit": "nM"}, {"measurement": "inhibition at 10 µM", "setting": "[3]", "result": 96, "unit": "%"}, {"measurement": "IC50", "setting": "[3]", "result": 1950, "unit": "nM"}, {"measurement": "inhibition at 10 µM", "setting": "[4]", "result": 65.1, "unit": "%"}, {"measurement": "IC50", "setting": "[4]", "result": 6480, "unit": "nM"}, {"measurement": "inhibition at 10 µM", "setting": "[5]", "result": 69.8, "unit": "%"}, {"measurement": "IC50", "setting": "[5]", "result": 1940, "unit": "nM"}]}, {"smiles": "Cc1[nH]c2c(c1C(=O)NCCO)CCC/C2=C1/C(=O)Nc2ccc(F)cc21", "note": "[I-9, N-(2-hydroxyethyl)-2-methyl-7-[1,2-dihydro-5-fluoro-2-oxo-3H-indol-(Z)-3-ylidene]-4,5,6,7-tetrahydro-1H-indole-3-carboxamide]", "values": [{"measurement": "inhibition at 10 µM", "setting": "[1]", "result": 16.3, "unit": "%"}, {"measurement": "inhibition at 10 µM", "setting": "[2]", "result": 42.1, "unit": "%"}, {"measurement": "inhibition at 10 µM", "setting": "[3]", "result": 63.7, "unit": "%"}, {"measurement": "inhibition at 10 µM", "setting": "[4]", "result": 66.7, "unit": "%"}, {"measurement": "inhibition at 10 µM", "setting": "[5]", "result": 0, "unit": "%"}]}]}
